Results on 13 compounds are retold here after patent US9296759B2, “Amino-oxazine and amino-dihydrothiazine compounds as beta-secretase modulators and methods of use” (AMGEN INC., priority 2011, dated 2016).

The subject of one data set is Abeta 40. In words: In vivo inhibition of beta-secretase: Abeta 40 reduction in CSF and brain of the rat. Particulars: 10 mpk, after 4 hrs. From the text: In Vivo Inhibition of Beta-Secretase
Several animal models, including mouse, rat, dog, and monkey, may be used to screen for inhibition of beta-secretase activity in vivo following administration of a test compound sample. Animals used in this invention can be wild type, transgenic, or gene knockout animals. For example, the Tg2576 mouse model, prepared and conducted as described in Hsiao et al., 1996, Science 274, 99-102, and other non-transgenic or gene knockout animals are useful to analyze in vivo inhibition of Amyloid beta peptide (Abeta) production in the presence of inhibitory test compounds. Generally, 2 to 18 month old Tg2576 mice, gene knockout mice or non-transgenic animals are administered test compounds formulated in vehicles, such as cyclodextran, phosphate buffers, hydroxypropyl methylcellulose or other suitable vehicles. One to twenty-four hours following the administration of compound, animals are sacrificed, and brains as well as cerebrospinal fluid (CSF) and plasma are removed for analysis of A-beta levels and drug or test compound concentrations (Dovey et al., 2001, Journal of Neurochemistry, 76, 173-181) Beginning at time 0, animals are administered by oral gavage, or other means of delivery such as intravenous injection, an inhibitory test compound of up to 100 mg/kg in a standard, conventional formulation, such as 2% hydroxypropyl methylcellulose, 1% Tween80. A separate group of animals receive 2% hydroxypropyl methylcellulose, 1% Tween80 alone, containing no test compound, and serve as a vehicle-control group. At the end of the test period, animals are sacrificed and brain tissues, plasma or cerebrospinal fluid are collected. Brains are either homogenized in 10 volumes (w/v) of 0.2% diethylamine (DEA) in 50 mM NaCl (Best et al., 2005, Journal of Pharmacology and Experimental Therapeutics, 313, 902-908), or in 10 volumes of 0.5% TritonX-100 in Tris-buffered saline (pH at about 7.6). Homogenates are centrifuged at 355,000 g, 4° C. for 30 minutes. CSF or brain supernatants are then analyzed for the presence of A-beta peptide by specific sandwich ELISA assays based on ECL (Electrochemiluminescence) technology. For example, rat Abeta40 is measured using biotinylated-4G8 (Signet) as a capture antibody and Fab40 (an in-house antibody specific to the C-terminal of Abeta40) as a detection antibody. For example, 4 hours after administration of 30 mg/kg oral dose of the test compound in 2% hydroxypropyl methylcellulose, 1% Tween80 (pH2.2) to 200 g male Sprague Dawley rats, amyloid beta peptide levels are measured for reduction by X % and Y % in cerebrospinal fluid and brain, respectively, when compared to the levels measured in the vehicle-treated rats.
• Oral: 2% HPMC, 1% Tween80, pH 2.2 • IV: 5% EtOH, 45% Propylene glycol in 5% Dextrose
The compounds of the invention may be shown to reduce the formation and/or deposition of amyloid beta peptide in the cerebrospinal fluid (CSF) as well as in the brain of a mouse or rat at either 3 mpk, 10 mpk or 30 mpk (mpk=mg compound per kg weight of the animal) dosing concentrations after 4 hrs.

Another data set deals with Cathepsin D (Homo sapiens (Human), UniProt P07339). Put plainly: In vitro enzymatic Cat D (Cathepsin D) FRET assay. The data set is classed as biochemical. Particulars: average IC50. The method in brief:
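CHO-expressed recombinant enzyme in 0.05 M citrate pH 3.5, 5 mM CHAPS, 10% DMSO final; reaction started with 20 nM quenched-peptide FRET substrate (cleavage site spanned by fluorophore/quencher), 1 h incubation.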

Data set [1] has as its target BACE 1 (beta secretase enzyme) (Homo sapiens (Human), UniProt P56817). Put plainly: In vitro enzymatic BACE FRET assay. The data set is classed as biochemical. Particulars: average IC50. The method in brief:
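The enzyme was tested in 0.05 M acetate, pH 4.2, with 10% DMSO final and 100 uM genapol. The reaction was started with 50 nM quenched FRET peptide substrate, incubated one hour and stopped with Tris to neutral pH. Cleavage was read as fluorescence ([…]).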

Data set [2] deals with Aβ40 in conditioned medium of cells stably expressing Amyloid Precursor Protein (APP). In words: In vitro BACE cell-based assay (HEK cell assay, Aβ40 sandwich ELISA). Particulars: Homo sapiens, HEK293; average IC50, Aβ40, 24 h incubation. In outline:
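Secreted Aβ40 was quantified by sandwich ELISA (pAb40 capture, biotinylated 6E10 detection, Europium time-resolved fluorescence). IC50 derived from percent inhibition versus concentration.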
In general terms: An ELISA detects its analyte on a solid surface through an enzyme-linked reagent.

Data set [3] deals with pigment epithelium of the rat's eye. Particulars: higher compound dose given for three months; cited from earlier work.
The conditions of data set [4]: people of the phase I trial; cited from earlier work.
The mark [5] stands for this setting: Abeta 40, rat CSF, read-out: % reduction of rat CSF levels at 10 pmk.
Where [6] appears, read: Abeta 40, rat brain, read-out: % reduction of rat brain levels at 10 mpk.

Like-named read-outs stand apart in the source and are kept apart here.

Sequence of Cathepsin D (P07339 65-412, species assumed): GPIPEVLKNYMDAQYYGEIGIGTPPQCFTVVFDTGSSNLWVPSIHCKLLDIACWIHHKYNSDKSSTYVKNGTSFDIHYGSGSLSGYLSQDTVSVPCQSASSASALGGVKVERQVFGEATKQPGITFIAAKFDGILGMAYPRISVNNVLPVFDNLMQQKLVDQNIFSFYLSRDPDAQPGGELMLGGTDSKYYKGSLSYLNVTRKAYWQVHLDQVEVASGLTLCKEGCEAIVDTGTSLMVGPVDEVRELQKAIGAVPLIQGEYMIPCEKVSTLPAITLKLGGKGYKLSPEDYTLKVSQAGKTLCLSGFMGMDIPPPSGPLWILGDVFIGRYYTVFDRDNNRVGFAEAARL
Sequence of BACE 1 (beta secretase enzyme) (P56817 46-501): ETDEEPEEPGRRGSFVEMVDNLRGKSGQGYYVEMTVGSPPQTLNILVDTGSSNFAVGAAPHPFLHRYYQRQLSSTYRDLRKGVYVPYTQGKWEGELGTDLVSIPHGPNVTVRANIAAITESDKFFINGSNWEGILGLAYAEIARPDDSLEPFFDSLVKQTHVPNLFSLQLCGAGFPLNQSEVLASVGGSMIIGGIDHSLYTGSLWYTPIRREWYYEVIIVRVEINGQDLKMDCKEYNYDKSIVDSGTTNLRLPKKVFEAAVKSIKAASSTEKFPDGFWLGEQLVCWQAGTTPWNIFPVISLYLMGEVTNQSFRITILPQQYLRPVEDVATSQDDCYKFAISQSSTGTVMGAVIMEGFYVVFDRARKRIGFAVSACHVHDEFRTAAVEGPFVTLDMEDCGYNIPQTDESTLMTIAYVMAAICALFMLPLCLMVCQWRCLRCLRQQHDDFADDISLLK

In the case of `NC1=N[C@@]2(CCO1)c1cc(NC(=O)c3ccc(Cl)cn3)ccc1Oc1ncc(C3CC3)cc12` [Example 73, N-((5S)-2′-amino-3-cyclopropyl-5′,6′-dihydrospiro[chromeno[2,3-b]pyridine-5,4′-[1,3]oxazin]-7-yl)-5-chloro-2-pyridinecarboxamide], the inhibition in vivo at 10 mg/kg with Abeta 40 (setting [5]) is 38%; in the data set on Abeta 40 (setting [6]) it was 7%. Moreover, the 50% inhibitory concentration (IC50) on Cathepsin D is 433000 nM; in data set [1], 12.7 nM; in data set [2], 3.2 nM.

On to `COc1ccc(C(=O)Nc2ccc3c(c2)[C@@]2(CCOC(N)=N2)c2cc(C4=CCOCC4)nc(F)c2O3)nc1` [Example 78, N-((5S)-2′-amino-3-(3,6-dihydro-2H-pyran-4-yl)-1-fluoro-5′,6′-dihydrospiro[chromeno[2,3-c]pyridine-5,4′-[1,3]oxazin]-7-yl)-5-methoxy-2-pyridinecarboxamide], for which the inhibition in vivo at 10 mg/kg was found to be 77% in the data set on Abeta 40 (setting [5]) and 70% in the data set on Abeta 40 (setting [6]). For the same compound, the half-maximal inhibitory concentration (IC50) on Cathepsin D worked out at 184000 nM; in data set [1], 1.5 nM; in data set [2] it was 0.2 nM.

For `COc1cnc(C(=O)Nc2ccc3c(c2)[C@@]2(CCOC(N)=N2)c2cc(C4CC4)ncc2O3)cn1` [Example 80, N-((5S)-2′-amino-3-cyclopropyl-5′,6′-dihydrospiro[chromeno[2,3-c]pyridine-5,4′-[1,3]oxazin]-7-yl)-5-methoxy-2-pyrazinecarboxamide], the inhibition in vivo at 10 mg/kg amounted to 82% in the data set on Abeta 40 (setting [5]) and 80% with Abeta 40 (setting [6]). In addition, the IC50 came out at 963000 nM at Cathepsin D, 6.8 nM in data set [1] and 1.5 nM in data set [2].

As to `NC1=N[C@@]2(CCO1)c1cc(NC(=O)c3ccc(Cl)cn3)ccc1Oc1cnc(C3CC3)cc12` [Example 81, N-((5S)-2′-amino-3-cyclopropyl-5′,6′-dihydrospiro[chromeno[2,3-c]pyridine-5,4′-[1,3]oxazin]-7-yl)-5-chloro-2-pyridinecarboxamide], the inhibition in vivo at 10 mg/kg in the data set on Abeta 40 (setting [5]) was found to be 76%; in the data set with Abeta 40 (setting [6]), 64%. The 50% inhibitory concentration (IC50) at Cathepsin D was determined as 400000 nM; in data set [1], 10.7 nM; in data set [2], 1.1 nM.

`COc1ccc(C(=O)Nc2ccc3c(c2)[C@@]2(CCOC(N)=N2)c2cc(C4=CCCOC4)nc(F)c2O3)nc1` [Example 84, N-((5S)-2′-amino-3-(5,6-dihydro-2H-pyran-3-yl)-1-fluoro-5′,6′-dihydrospiro[chromeno[2,3-c]pyridine-5,4′-[1,3]oxazin]-7-yl)-5-methoxy-2-pyridinecarboxamide]: the figures for the inhibition in vivo at 10 mg/kg in the data set with Abeta 40 (setting [5]) and with Abeta 40 (setting [6]) were 83% and 71%, respectively. Moreover, the concentration for half-maximal inhibition (IC50) turned out to be 313000 nM at Cathepsin D, 0.9 nM in data set [1] and 0.1 nM in data set [2].

For the compound `COc1ccc(C(=O)Nc2ccc3c(c2)[C@@]2(CCOC(N)=N2)c2cc(-c4cncc(F)c4)nc(F)c2O3)nc1` [Example 87, N-((5S)-2′-amino-1-fluoro-3-(5-fluoro-3-pyridinyl)-5′,6′-dihydrospiro[chromeno[2,3-c]pyridine-5,4′-[1,3]oxazin]-7-yl)-5-methoxy-2-pyridinecarboxamide], the inhibition in vivo at 10 mg/kg is 75% with Abeta 40 (setting [5]) and 53% in the data set with Abeta 40 (setting [6]). Further, the IC50 at Cathepsin D was 256000 nM; in data set [1], 1.4 nM; in data set [2], 0.5 nM.

Regarding `Cc1nc(C(=O)Nc2ccc3c(c2)[C@@]2(CCOC(N)=N2)c2cc(-c4cncc(F)c4)nc(F)c2O3)cs1` [Example 88, N-((5S)-2′-amino-1-fluoro-3-(5-fluoro-3-pyridinyl)-5′,6′-dihydrospiro[chromeno[2,3-c]pyridine-5,4′-[1,3]oxazin]-7-yl)-2-methyl-1,3-thiazole-4-carboxamide], the inhibition in vivo at 10 mg/kg in the data set with Abeta 40 (setting [5]) was 49%; in the data set with Abeta 40 (setting [6]) it was 27%. In addition, the IC50 on Cathepsin D is 362000 nM; in data set [1], 0.6 nM; in data set [2], 0.2 nM.

Regarding `NC1=N[C@@]2(CCO1)c1cc(NC(=O)c3ccc(F)cn3)ccc1Oc1c2cc(-c2cncc(F)c2)nc1F` [Example 89, N-((5S)-2′-amino-1-fluoro-3-(5-fluoro-3-pyridinyl)-5′,6′-dihydrospiro[chromeno[2,3-c]pyridine-5,4′-[1,3]oxazin]-7-yl)-5-fluoro-2-pyridinecarboxamide], the values for the inhibition in vivo at 10 mg/kg in the data set with Abeta 40 (setting [5]) and with Abeta 40 (setting [6]) were 69% and 46%, respectively. In addition, the IC50 on Cathepsin D was determined as 400000 nM; in data set [1] it was 1.6 nM; in data set [2], 0.6 nM.

For `COc1cnc(C(=O)Nc2ccc3c(c2)[C@@]2(CCOC(N)=N2)c2cc(-c4ccnc(F)c4)nc(F)c2O3)cn1` [Example 92, N-((5S)-2′-amino-1-fluoro-3-(2-fluoro-4-pyridinyl)-5′,6′-dihydrospiro[chromeno[2,3-c]pyridine-5,4′-[1,3]oxazin]-7-yl)-5-methoxy-2-pyrazinecarboxamide], the inhibition in vivo at 10 mg/kg with Abeta 40 (setting [5]) worked out at 79%; in the data set with Abeta 40 (setting [6]) it was 70%. Further, the IC50 on Cathepsin D stood at 400000 nM; in data set [1], 1.8 nM; in data set [2] it was 0.9 nM.

In the case of `COc1ccc(C(=O)Nc2ccc3c(c2)[C@@]2(CCSC(N)=N2)c2cc(C4=CCOCC4)nc(F)c2O3)nc1` [Example 101, N-((5S)-2′-amino-3-(3,6-dihydro-2H-pyran-4-yl)-1-fluoro-5′,6′-dihydrospiro[chromeno[2,3-c]pyridine-5,4′-[1,3]thiazin]-7-yl)-5-methoxy-2-pyridinecarboxamide], the inhibition in vivo at 10 mg/kg was 76% in the data set with Abeta 40 (setting [5]) and 59% in the data set on Abeta 40 (setting [6]). The 50% inhibitory concentration (IC50) at Cathepsin D came to 198000 nM; in data set [1], 1.5 nM; in data set [2] it was 0.7 nM.

In the case of `COc1cnc(C(=O)Nc2ccc3c(c2)[C@@]2(CCSC(N)=N2)c2cc(C4=CCCOC4)ncc2O3)cn1` [Example 104, N-((5S)-2′-amino-3-(5,6-dihydro-2H-pyran-3-yl)-5′,6′-dihydrospiro[chromeno[2,3-c]pyridine-5,4′-[1,3]thiazin]-7-yl)-5-methoxy-2-pyrazinecarboxamide], the inhibition in vivo at 10 mg/kg is 64% in the data set on Abeta 40 (setting [5]) and 43% with Abeta 40 (setting [6]). Also, the IC50 at Cathepsin D turned out to be 295000 nM; in data set [1], 3.1 nM; in data set [2], 1 nM.

`COc1ccc(C(=O)Nc2ccc3c(c2)[C@@]2(CCSC(N)=N2)c2cc(C4=CCCOC4)nc(F)c2O3)nc1` [Example 111, N-((5S)-2′-amino-3-(5,6-dihydro-2H-pyran-3-yl)-1-fluoro-5′,6′-dihydrospiro[chromeno[2,3-c]pyridine-5,4′-[1,3]thiazin]-7-yl)-5-methoxy-2-pyridinecarboxamide]: the inhibition in vivo at 10 mg/kg turned out to be 76% in the data set with Abeta 40 (setting [5]) and 58% with Abeta 40 (setting [6]). Also, the IC50 at Cathepsin D is 569000 nM; in data set [1] it was 2.5 nM; in data set [2], 0.8 nM.

For `C[C@@]1(c2cc(-c3cncnc3)c(F)cc2F)CCSC(N)=N1` [LY 2811376], the retinal toxicity finding entry in data set [3] was “ravaged the pigment epithelium of the rat's eye”. Further, in data set [4], the eye assessments result was “did not show any abnormalities”.

As usually defined, the IC50 is the concentration that gives 50% inhibition.
